Assay results as given in patent US7223733B2, “Modulation of TRIP-Br function and method of treating proliferative disorders” (National University of Singapore, priority 2004, dated 2007).
Where no end group is shown, it is not given here. [invdT] = inverted (3'-3') thymidine

Legend:
Type in all cases: cell-based, human
WI-38 cells [1] = assay: BrdU incorporation, serum-induced S phase entry of WI-38 cells; details: WI-38, 0.1 μM, 20 h; compared to unstimulated cells
Procedure: (§1) DNA enzyme transfection. WI-38 cells were rendered quiescent by cultivation in serum-free medium for 72 h before being transfected with DNA enzyme (0.1 μM) using Superfect as reported previously (Santiago, F. S., et al. Nat Med 5, 1264-1269 (1999)) in accordance to manufacturer's recommendations (Qiagen).
(§2) Cell proliferation assays. For the BrdU incorporation assays, growth-quiescent WI-38 cells in 96-well dishes were transfected with DNA enzyme and/or 100 ng of pCMV/E2F1, pCMV/DP1, pRSV/Cyclin E, or pCMV/Cdk2 and then exposed to Bromodeoxyuridine (BrdU, 100 μM) in the presence or absence of 10% FBS for 20 h. Bromodeoxyuridine (BrdU) incorporation was monitored with a calorimetric ELISA assay using a cell proliferation kit according to manufacturer's recommendations (Boehringer Mannheim). For manual cell count, growth-quiescent WI-38 cells in 24-well dishes were transfected with DNA enzyme and then exposed to 10% FBS for 72 h. The cells were rinsed with PBS, pH 7.4, and trypsinized, and 10 μl of cell suspension was taken from each sample and mixed with equal volume of trypan blue stain (Sigma, 0.4% w/v in 1×PBS). The number of unstained cells was enumerated manually using a hemocytometer. For colony formation assays, growth-quiescent WI-38 cells in 12-well dishes were transfected with DNA enzyme and then exposed to 10% FBS for 120 h. Cells were stained in situ with crystal violet (0.75% w/v hexamethyl-p-rosaniline chloride [SIGMA], 50% ethanol, 1.75% w/v paraformaldehyde, 0.25% w/v NaCl) for 10 min, and then rinsed thoroughly with deionized water to remove excess stains.
FIG. 13: (A) E-Br1 or E-Br2 suppresses serum-inducible S phase entry. Sub-confluent WI-38 cells were serum-starved for 72 h. Following DNA enzyme transfection, the cultures were re-stimulated with serum and allowed to proliferate in BrdU labeling medium. After 20 h, cells were assayed for BrdU incorporation with a colorimetric ELISA assay. Values represent the average of at least two independent experiments. […] Sub-confluent WI-38 cells were serum-starved for 72 h. […]

WI-38 cells [2] = assay: Colony formation assay of WI-38 cells (crystal violet); details: WI-38, serum-induced, 72 h
Procedure: as §1
as §2, with “For colony formation assays, growth-quiescent WI-38 cells in 12-well dishes were transfected with DNA enzyme and then exposed to 10% FBS for 120 h.” left out
FIG. 12: (A) E-Br1 or E-Br2 inhibits cell proliferation. Sub-confluent WI-38 cells were serum-starved for 72 h. Following DNA enzyme transfection, the cultures were re-stimulated with serum and allowed to proliferate. After 72 h, cells were harvested for viable cell count analysis. 10 μl of cell suspension from each sample was mixed with equal volume of 0.4% trypan blue stain. The number of unstained cells was enumerated manually using a hemocytometer. Data represent the average of at least two independent experiments. […] (B) E-Br1 or E-Br2 suppresses colony formation. Sub-confluent WI-38 cells were serum-starved for 72 h. […]

Fbxw7 mRNA = assay: Semi-quantitative RT-PCR of Fbxw7 in U2OS cells; details: U2OS, 5, 10 or 20 μM
Procedure: Semi-quantitative RT-PCR. Total RNA was isolated from U2OS cells or U2OS-ER-E2F-1 cells (grown with or without 1.0 μM OHT and/or 10 μg/ml cycloheximide) using the TRIZOL® Reagent (Life Technologies). Total RNA (4 μg) was reverse transcribed using oligo-dT and M-MLV reverse transcriptase in a total reaction volume of 20 μl. Polymerase Chain Reactions (PCR) were carried out on 3 μl cDNA samples in the presence of […] deoxyribonucleotide triphosphates (dNTPs) and 40 μM of specific primer pairs in a total reaction volume of 50 μ. The cycling profile for PCR was as follow: 30 cycles of denaturation (94° C., 30 sec), annealing (51° C., 30 sec) and extension (72° C., 2 min), with a 2-minute initial denaturation step at 94° C. and a 10-minute terminal polishing step at 72° C. Sequences of gene-specific primers are available upon request. PCR amplification products were analyzed by agarose gel electrophoresis.
FIG. 8: The role(s) of the TRIP-Br integrator function in cyclin E regulation. […] U2OS cells exposed to 5, 10 or 20 μM of decoy peptides were analyzed for Fbxw7 mRNA transcript levels by semi-quantitative RT-PCR. H-actin was co-amplified as an internal control; (C) cyclin-E and Fbxw7 expression was analyzed by semi-quantitative RT-PCR using total RNA from sub-confluent U2OS ER-E2F-1 cells grown with or without OHT and/or cycloheximide (CHX) for 2 h as indicated. […]

Row | Substance | BrdU incorporation on serum stimulation (WI-38 cells [1]) | colony forming potential (WI-38 cells [2]) | expression level of Fbxw7 mRNA (Fbxw7 mRNA)
1 | 5′-T TACCCAACAGGCTAGCTACAACGAATATCACA-3′ (DNA TTACCCAACAGGCTAGCTACAACGAATATCACA; DNA, 3' [invdT], backbone not given here) [E-Br2] | significantly inhibited | significantly reduced colony forming potential | –
2 | 5′-T TGCTCAGCAGGCTAGCTACAACGACTTGCTCA-3′ (DNA TTGCTCAGCAGGCTAGCTACAACGACTTGCTCA; DNA, 3' [invdT], backbone not given here) [E-Br1] | significantly inhibited | significantly reduced colony forming potential | –
3 | ERQIKIWFQNRRMKWKKATGCLLDDGLEGLFEDID (ERQIKIWFQNRRMKWKKATGCLLDDGLEGLFEDID-NH2) [*Br1] | – | – | down-regulated the expression level of Fbxw7 in a dose-dependent fashion
4 | ERQIKIWFQNRRMKWKKTGFLTDLTLDDILFADID (ERQIKIWFQNRRMKWKKTGFLTDLTLDDILFADID-NH2) [*Br2] | – | – | down-regulated the expression level of Fbxw7 in a dose-dependent fashion
